Each structure is given as a SMILES string.

The assay has as its system LPS-induced release of endogenous TNFα from human peripheral blood mononuclear cells (PBMCs). The assay is described as follows: Example 13: ELISA-based TNFα release assay, LPS-induced, PBMCs from healthy donor. The class given is cell-based. The following applies: 10 μM final concentration, LPS 50 ng/ml, delta Buffer stimulated vs unstimulated = 100% inhibition; for inhibition at 10 µM: Homo sapiens, PBMC. How it is done:
In the following study, ELISA-based TNFα release assay was performed to verify the inhibitory effects of Compounds 1, 2, 3, 4, 5, and 7 on LPS-induced release of endogenous TNFα from primary human material obtained from healthy donor using peripheral blood mononuclear cells (PBMCs). The ELISA-based TNFα release assay that was used in this example is described below.
In brief, on day 1, Nunc black MaxiSorp® 96-well plates (Thermo Fisher Scientific, USA) were coated overnight with 100 μl per well of mouse anti-human TNFα capture antibody (provided as part of the DuoSet ELISA kit) at 4 μg/ml TBS at 4° C. On day 2, the capture antibody solution was removed and MaxiSorp® plates were blocked with 300 μl per well of TBS, 1% BSA at room temperature for 3 hours. Meanwhile, 20,000 PBMCs from healthy donor (SciRhom GmbH, Germany) in 80 μl of normal growth medium were seeded in each well of Greiner CELLSTAR V-bottom 96-well plates (Thermo Fisher Scientific, USA) and pre-incubated with 20 μl per well of standard growth medium supplemented with Batimastat (BB94, Abcam, UK) at 50 μM as positive control (for a final concentration of 10 μM in the resulting 100 μl sample volume), compounds of the invention at 50 μM (for a final concentration of 10 μM in the resulting 100 μl sample volume) and in case of Buffer stimulated and unstimulated controls with DMSO (Carl Roth, Germany) at 50 μM (for a final concentration of 10 μM in the resulting 100 μl sample volume) at 37° C., 5% CO2 for 30 minutes. Subsequently, cells (except those for unstimulated controls) were stimulated with 20 μl per well of LPS (Sigma-Aldrich, USA) at 300 ng/ml growth medium for a final concentration of 50 ng/ml at 37° C., 5% CO2 for 2 hours. Afterwards, the 96-well plates were centrifuged to pellet cells. In parallel, blocking buffer was removed from the MaxiSorp® plates and plates were washed 4 times with 350 μl per well of TBS-T (Carl Roth, Germany) on a 96-head plate washer (Tecan Group, Switzerland). To avoid drying-up, 30 μl of TBS were added to each well of the MaxiSorp® plates immediately, followed by the transfer of 70 μl of cell-free supernatant per sample. Additionally, 100 μl of recombinant human TNFα protein (provided as part of the DuoSet ELISA kit) diluted in TBS at defined concentrations were added to the plate as standard references. Thereafter, 100 μl per well of biotinylated goat anti-human TNFα detection antibody (provided as part of the DuoSet ELISA kit) at 50 ng/ml TBS were added and, protected from direct light, plates were incubated at room temperature for 2 hours. After 4 times washing with 350 μl per well of TBS-T (Carl Roth, Germany) on a 96-head plate washer (Tecan Group, Switzerland) and careful removal of all buffer traces after the fourth cycle, 100 μl of streptavidin-AP (R&D Systems, USA) diluted 1:10,000 in TBS were added to each well and, again protected from direct light, plates were incubated at room temperature for 30 minutes. Following another round of 4 times washing with 350 μl per well of TBS-T (Carl Roth, Germany) on a 96-head plate washer (Tecan Group, Switzerland) and careful removal of all buffer traces after the fourth cycle, 100 μl of AttoPhos substrate solution (Promega, USA) was added for incubation in the dark at room temperature for 1 hour. Using an infinite M1000 PRO (Tecan Group, Switzerland) microplate reader, the fluorescence of each well was collected at an excitation wavelength of 435 nm and an emission wavelength of 555 nm.
The delta between Buffer stimulated and Buffer unstimulated was defined 100% inhibition.

A word on the inhibition: it is the relative decrease from the control value, in per cent. With `CNC(=O)[C@H](Cc1ccccc1)NC(=O)[C@H](CC(C)C)[C@H](CSc1cccs1)C(=O)NO` [Batimastat, reference compound], the “inhibition of LPS-induced release of TNFα from human PBMCs” value (2 hours) stood at 114.9%. For the setting “2 h”, this molecule returned an inhibition at 10 µM of 99.5%.

For the molecule `CCC(=O)NCCc1c(/C=C2/C(=O)NC(=O)N(c3ccc(C)cc3C)C2=O)[nH]c2ccccc12` [Compound 1], the inhibition at 10 µM (2 hours) is 99.5%.

The molecule `CCOC(=O)c1ccc(Nc2nc3nonc3n3nnnc23)cc1` [Compound 2] returned an inhibition at 10 µM (2 h) of 98.6%.

`O=C(c1c(Cl)cccc1Cl)N1CCC(Cc2ccc(F)cc2)CC1` [Compound 3] showed an inhibition at 10 µM (2 h) of 76.3%.

Regarding `Cc1c(C(=O)NCc2cccs2)sc(=O)n1Cc1ccccc1` [Compound 4], where the note is “2 h”, the inhibition at 10 µM was found to be 42%.

Molecule `Cc1c(C(=O)NCc2cccs2)sc(=O)n1Cc1ccccc1F` [Compound 5] yielded an inhibition at 10 µM (2 h) of 51.3%.

Molecule `Cc1c(C(=O)NCc2ccco2)sc(=O)n1Cc1ccccc1F` [Compound 7] gave an inhibition at 10 µM (2 h) of 72.5%.
